ChEMBL document CHEMBL4765340, “Novel potent antiplatelet thrombotic agent derived from biguanide for ischemic stroke” (Eur J Med Chem, 2020)
Active and inactive are the calls of the source. The calls are words filed in the database; no cut-off is given here.

How the values were obtained:
[1] = Inhibition of thrombin-stimulated human platelet aggregation by measuring aggregation at 0.05 mM measured after 3 hrs by scanning electron microscopy (Rvb= 87.2 +/- 4.0%); assay type: functional; design: scale not given: the % may be the effect or the level left
Mus musculus [2] = assay: (§1) Antithrombotic activity in transient focal cerebral ischemic mouse model occlusion induced 60 mins of the right middle cerebral artery followed by reperfussion 23 hrs assessed as reduction of brain infract volume at 200 mg/kg, po twice daily for 7 days by TTC staining based […] analysis (reference value: 46 +/- 5%); assay type: functional; design: scale not given: the % may be the effect or the level left; conditions: time 7 day
[3] = Half life in Sprague-Dawley rat at 200 mg/kg, po measured by HPLC-MS/MS analysis; assay type: ADME, organism-based; conditions: in vivo
[4] = Toxicity in calcein-labelled platelet-mediated ferric chloride-induced arterial injury thrombosis po dosed C57BL/6J mouse model assessed as change in prothrombin time treated twice a day measured upto 7 days; assay type: organism-based; conditions: in vivo, 168 h, time <=7 day
[5] = Toxicity in calcein-labelled platelet-mediated ferric chloride-induced arterial injury thrombosis po dosed C57BL/6J mouse model assessed as change in coagulation factor II treated twice a day measured upto 7 days; assay type: organism-based; conditions: in vivo, 50 mg/kg, 168 h, time <=7 day
Mus musculus [6] = assay: Antithrombotic activity in calcein-labelled platelet-mediated ferric chloride-induced arterial injury thrombosis C57BL/6J mouse model assessed as average time to occlusive thrombosis at 200 mg/kg, po administrated twice a day measured upto 7 days (reference value: 7.9 +/- 0.7 min); assay type: functional; conditions: time day <=7
Mus musculus [7] = assay: as §1, with “activated platelets with red blood cells and loose textured stroke thrombi” for “reduction of brain infract volume”, “analysis” for “analysis (reference value: 46 +/- 5%)”; assay type: functional, organism-based; conditions: time 7.0 day
[8] = Toxicity in C57BL/6J mouse assessed as change in immature platelet fraction at 200 mg/kg twice daily for 60 days relative to control; assay type: organism-based; conditions: in vivo, 1440 h, time 60 day

CN(C)C(=N)NC(=N)NS(=O)(=O)C(F)(F)F
Activity [1]: 62.2%
Activity (Mus musculus [2]): 5%
half-life [3]: 4.94 h
Activity [4]: Non-Toxic
Activity [5]: Non-Toxic
Time (Mus musculus [6]): 21.2 min
Activity (Mus musculus [7]): Active
Activity [8]: Non-Toxic
